Our source for the Ki values is patent US20240317801A1, “PEPTIDOMIMETIC MATRIPTASE 2 INHIBITORS AND USES THEREOF” (Disc Medicine, Inc., priority 2020, published 2024).

Bounds are passed on as bounds.

In this assay the target is T1, Human Recombinant Matriptase 2 (Homo sapiens, UniProt Q8IU80).
T1 construct: purchased Enzo Life Sciences ALX-201-752-1
T1 sequence (Q8IU80 1-811): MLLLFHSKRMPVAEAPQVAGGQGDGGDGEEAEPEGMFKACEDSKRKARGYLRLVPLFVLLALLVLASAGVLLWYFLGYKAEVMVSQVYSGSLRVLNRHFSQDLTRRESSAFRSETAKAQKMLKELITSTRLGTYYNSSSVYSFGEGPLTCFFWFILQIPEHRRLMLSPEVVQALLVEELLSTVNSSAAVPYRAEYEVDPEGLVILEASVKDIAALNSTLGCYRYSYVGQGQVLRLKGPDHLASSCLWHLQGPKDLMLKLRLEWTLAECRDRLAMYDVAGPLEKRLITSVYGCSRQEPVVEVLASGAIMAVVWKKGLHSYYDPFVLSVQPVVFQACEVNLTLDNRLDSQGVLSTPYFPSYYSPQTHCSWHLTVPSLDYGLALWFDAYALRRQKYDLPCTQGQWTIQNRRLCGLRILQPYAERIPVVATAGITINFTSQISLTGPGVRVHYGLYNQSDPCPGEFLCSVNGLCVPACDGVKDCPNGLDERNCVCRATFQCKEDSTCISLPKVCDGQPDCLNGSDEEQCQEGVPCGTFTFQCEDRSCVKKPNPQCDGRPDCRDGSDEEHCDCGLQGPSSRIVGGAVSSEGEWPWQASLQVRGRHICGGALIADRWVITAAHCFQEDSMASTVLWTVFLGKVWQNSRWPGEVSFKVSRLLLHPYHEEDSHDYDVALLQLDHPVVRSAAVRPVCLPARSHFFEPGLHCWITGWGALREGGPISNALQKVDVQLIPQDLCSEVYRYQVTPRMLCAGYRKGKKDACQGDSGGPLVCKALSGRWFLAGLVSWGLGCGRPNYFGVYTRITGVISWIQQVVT
Kind of assay: Matriptase 2 fluorescence-based inhibition assay (Boc-Gln-Ala-Arg-AMC substrate). The format is biochemical. The note with it: Ki derived from measured IC50 using Cheng-Prusoff equation; 30 min preincubation, 100 μM substrate, 25° C., pH 7.5; read-out: Mat-2 Ki. How it is done:
Test compounds were evaluated for their potential to inhibit Human Recombinant Matriptase 2 (in-house and commercial protein from Enzo Life Sciences—cat log—ALX-201-752-1) using fluorescence-based assay. The concentration of Recombinant Matriptase 2 and the substrate used in the assay were: 7 nM (commercial) and 15 nM (In-house Matriptase 2) and 100 μM (Boc-Gln-Ala-Arg-7-amido-4-methyl coumarin hydrobromide—Cat log: B4153-Sigma and I-1550 from Bachem) respectively. The assay buffer used comprised 50 mM TRIS pH 7.5, 150 mM NaCl, 0.01% gelatin (G1393 Sigma). The assay was performed by using 384 well black flat bottom plate from Grenier (Cat log: 781076) at 25° C. The enzyme and the test compound were preincubated for 30 mins, and the plate was read at wavelength Ex: 360/Em:480 nm60 mins after substrate addition. The final assay volume of was 20 μl. Stock solution of compounds were initially prepared in DMSO, which were appropriately diluted for screening to determine IC50 determination (final DMSO conc in the assay was 1%). All the measurements were carried out using the Spectramax M5, Molecular devices. The test compounds were screened at 1 and 10 μM concentrations and IC50 was determined for the interested compounds.
Ki is the binding affinity of an inhibitor. Mat-2 Ki as described herein is the binding affinity of an inhibitor such as a compound as described and provided herein to Mat-2. Mat-2 Ki values are derived from the measured IC50. To determine IC50 values, dose-response curves were generated by plotting percentage inhibition as a function of inhibitor concentration and the data was fitted to a sigmoidal non-linear regression equation (variable slope) using Graph Pad Prism software V7. Mat-2 Ki values as described herein were derived from the IC50 using the Cheng-Prusoff equation, which is understood and appreciated by one the skill in the art. The Mat-2 Ki values of tested compounds as described herein are shown in Table A. Accordingly, the compounds can be used to inhibit matriptase 2 and treat diseases and conditions associated with matriptase 2, such as those described herein.
The Ki is the equilibrium dissociation constant of an inhibitor or competing ligand from its target. For the compound `CO[C@H](C)[C@H](NC(=O)C(Cc1cscn1)NC(=O)OCc1ccccc1)C(=O)NC(Cc1ccnc(N)c1)C(=O)C(=O)NC(C)(C)C` (stereo partly shown), the Ki is ≤ 0.1 µM.

With `C[C@H](O)[C@H](NC(=O)[C@H](Cc1cscn1)NC(=O)OCc1ccccc1)C(=O)N[C@@H](CCCNC(=N)N)C(=O)C(=O)NC(C)(C)C`, the Ki is ≤ 0.1 µM.

With `CCOC(=O)CNC(=O)C(=O)C(CCCNC(=N)N)NC(=O)[C@@H](NC(=O)C(CCc1ccccc1)NC(=O)CCc1ccccc1)[C@@H](C)O` (stereo partly shown), the Ki was in the range of 0.1 to 1 µM.

`C[C@H](O)[C@H](NC(=O)[C@H](CCc1ccccc1)NC(=O)CCc1ccccc1)C(=O)NC(CCCNC(=N)N)C(=O)C(=O)NC1CC1` (stereo partly shown): the Ki is ≤ 0.1 µM.

`CNC(=O)C(=O)[C@H](CCCNC(=N)N)NC(=O)[C@@H](NC(=O)[C@H](CCc1ccccc1)NC(=O)CCc1ccccc1)[C@@H](C)O`: the Ki was ≤ 0.1 µM.

On to `CC(C)(C)NC(=O)C(=O)[C@H](CCCNC(=N)N)NC(=O)C1COCCN1C(=O)[C@H](Cc1cscn1)NC(=O)OCc1ccccc1` (stereo partly shown), for which the Ki is ≤ 0.1 µM.

As for `CNC(=O)C(O)C(CCCNC(=N)N)NC(=O)[C@@H](NC(=O)[C@H](CCc1ccccc1)NC(=O)CCc1ccccc1)[C@@H](C)O` (stereo partly shown), the Ki was ≥ 1 µM.

For `CC(C)[C@H](NC(=O)[C@H](Cc1cscn1)NC(=O)CCc1ccccc1)C(=O)N[C@@H](CCCNC(=N)N)C(=O)C(=O)NC1CC1`, the Ki was ≤ 0.1 µM.

`CO[C@@H](C)[C@H](NC(=O)C(CCc1ccccc1)NC(=O)OCc1ccccc1)C(=O)NC(CCCNC(=N)N)C(=O)C(=O)NC(C)(C)C` (stereo partly shown): the Ki is ≤ 0.1 µM.

For `C[C@@H](O)[C@H](NC(=O)[C@H](CCc1ccccc1)NC(=O)CCc1ccccc1)C(=O)N[C@@H](CC1CCN(C(=N)N)CC1)C(=O)C(=O)NC1CC1` [(3S)-4-(1-carbamimidoylpiperidin-4-yl)-N-cyclopropyl-2-oxidanylidene-3-[[(2S,3R)-3-oxidanyl-2-[[(2S)-4-phenyl-2-(3-phenylpropanoylamino)butanoyl]amino]butanoyl]amino]butanamide], the Ki fell in the range of 0.1 to 1 µM.

In the case of `C[C@H](O)[C@H](NC(=O)[C@H](CCc1ccccc1)NC(=O)CCc1ccccc1)C(=O)NC(CCCNC(=N)N)C(=O)C(=O)NC(C)(C)C` (stereo partly shown), the Ki was ≤ 0.1 µM.

Take `CO[C@H](C)[C@H](NC(=O)[C@H](Cc1cscn1)NC(=O)OC(C)C)C(=O)NC(CCCNC(=N)N)C(=O)C(=O)NC(C)(C)C` (stereo partly shown): the Ki was ≤ 0.1 µM.

`CO[C@@H](C)C(NC(=O)[C@H](Cc1cscn1)NC(=O)OCc1ccccc1)C(=O)NC(CCCNC(=N)N)C(=O)C(=O)NC(C)(C)C` (stereo partly shown): the Ki is ≤ 0.1 µM.

`C[C@@H](O)[C@H](NC(=O)[C@H](Cc1cscn1)NC(=O)CCc1ccccc1)C(=O)N[C@@H](CCCNC(=N)N)C(=O)C(=O)NC(C)(C)C`: the Ki was ≤ 0.1 µM.

Take `C[C@@H](O)[C@H](NC(=O)[C@H](CCc1ccccc1)NC(=O)CCc1ccccc1)C(=O)N[C@@H](CCCNC(=N)N)C(=O)C(=O)NC1CC1` [(S)—N-cyclopropyl-6-guanidino-3-((2S,3R)-3-hydroxy-2-((S)-4-phenyl-2-(3-phenylpropanamido)butanamido)butanamido)-2-oxohexanamide]: the Ki was ≤ 0.1 µM.

Consider `CCNC(=O)C(=O)C(Cc1cccc(Cl)c1)NC(=O)[C@@H](NC(=O)[C@H](CCc1ccccc1)NC(=O)CCc1ccccc1)[C@@H](C)O` (stereo partly shown), for which the Ki was ≥ 1 µM.

On to `CNC(=O)C(=O)[C@H](CCCNC(=N)N)NC(=O)[C@@H](NC(=O)[C@H](CCc1ccccc1)NC(=O)OCc1ccccc1)[C@@H](C)O`, for which the Ki was ≤ 0.1 µM.

As for `C[C@@H](O)[C@H](NC(=O)[C@H](Cc1cscn1)NC(=O)CCc1ccccc1)C(=O)N[C@@H](CCCNC(=N)N)C(=O)C(=O)NC1CC1`, the Ki is ≤ 0.1 µM.

For the compound `C[C@H](O)[C@H](NC(=O)[C@H](CCc1ccccc1)NC(=O)OCc1ccccc1)C(=O)N[C@@H](CCCNC(=N)N)C(=O)C(=O)NC(C)(C)C`, the Ki was ≤ 0.1 µM.

For the compound `C[C@@H](O)[C@H](NC(=O)[C@H](CCc1ccccc1)NC(=O)CCc1ccccc1)C(=O)N[C@@H](CCCNC(=N)N)C(=O)C(=O)N(C)C`, the Ki was ≥ 1 µM.

`C[C@@H](O)[C@H](NC(=O)C(CCc1ccccc1)NC(=O)CCc1ccccc1)C(=O)NC(Cc1cccc(CN)c1)C(=O)C(=O)NC1CC1` (stereo partly shown): the inhibitory constant (Ki) lay within 0.1 to 1 µM.

In the case of `N=C(N)NCCC[C@H](NC(=O)C1(NC(=O)[C@H](CCc2ccccc2)NC(=O)CCc2ccccc2)CCC1)C(=O)C(=O)NC1CC1`, the Ki was ≤ 0.1 µM.

`C[C@H](O)[C@H](NC(=O)[C@H](CCc1ccccc1)NC(=O)CCc1ccccc1)C(=O)N[C@@H](CCCNC(=N)N)C(=O)C(=O)N[C@@H]1C[C@@H]1F`: the Ki is ≤ 0.1 µM.

Turning to `C[C@@H](O)[C@H](NC(=O)[C@H](Cc1cscn1)NC(=O)OCc1ccccc1)C(=O)N[C@@H](CCCNC(=N)N)C(=O)C(=O)NC(C)(C)C`, the Ki is ≤ 0.1 µM.

As to `CO[C@H](C)[C@H](NC(=O)[C@H](CCc1ccccc1)NC(=O)CCc1ccccc1)C(=O)N[C@@H](CCCNC(=N)N)C(=O)C(=O)NC1CC1`, the Ki is ≤ 0.1 µM.

In the case of `C[C@@H](O)[C@H](NC(=O)C(CCc1ccccc1)NC(=O)CCc1ccccc1)C(=O)NC(Cc1ccc(N)nc1)C(=O)C(=O)NC1CC1` (stereo partly shown), the Ki was ≥ 1 µM.

As to `C[C@@H](O)[C@H](NC(=O)[C@H](CCc1ccccc1)NC(=O)CCc1ccccc1)C(=O)N[C@@H](CCCNC(=N)N)C(=O)C(=O)NC1(C)CC1` [(S)-6-guanidino-3-((2S,3R)-3-hydroxy-2-((S)-4-phenyl-2-(3-phenylpropanamido)butanamido)butanamido)-N-(1-methylcyclopropyl)-2-oxohexanamide], the Ki was ≤ 0.1 µM.

Regarding `CC(C)[C@H](NC(=O)[C@H](Cc1cscn1)NC(=O)OCc1ccccc1)C(=O)N[C@@H](CCCNC(=N)N)C(=O)C(=O)NC(C)(C)C`, the Ki is ≤ 0.1 µM.

As to `N=C(N)NCCC[C@H](NC(=O)[C@@H]1C[C@@H](O)CN1C(=O)[C@H](CCc1ccccc1)NC(=O)CCc1ccccc1)C(=O)C(=O)NC1CC1` [(2S,4R)—N—((S)-1-(cyclopropylamino)-6-guanidino-1,2-dioxohexan-3-yl)-4-hydroxy-1-((S)-4-phenyl-2-(3-phenylpropanamido)butanoyl)pyrrolidine-2-carboxamide], the Ki was ≤ 0.1 µM.

Regarding `C[C@@H](O)[C@H](NC(=O)C(CCc1ccccc1)NC(=O)OCc1ccccc1)C(=O)NC(CCCS(C)(=N)=O)C(=O)C(=O)NC(C)(C)C` (stereo partly shown), the Ki is ≥ 1 µM.

As for `C[C@@H](O)[C@H](NC(=O)[C@H](CCc1ccccc1)NC(=O)CCc1ccccc1)C(=O)N[C@@H](CCCNC(=N)N)C(=O)C(N)=O`, the Ki is ≤ 0.1 µM.

For `CC(C)(C)NC(=O)C(=O)[C@H](CCCNC(=N)N)NC(=O)C1C[C@@H](O)CN1C(=O)[C@H](Cc1cscn1)NC(=O)OCc1ccccc1` (stereo partly shown), the Ki was ≤ 0.1 µM.

On to `CC(C)(C)NC(=O)C(=O)C(CCCNC(=N)N)NC(=O)C1(NC(=O)[C@H](Cc2cscn2)NC(=O)OCc2ccccc2)CCCC1` (stereo partly shown), for which the Ki was ≤ 0.1 µM.

In the case of `C[C@@H](O)[C@H](NC(=O)[C@H](Cc1ccc(F)cc1)NC(=O)OCc1ccccc1)C(=O)NC(CCCNC(=N)N)C(=O)C(=O)NC(C)(C)C` (stereo partly shown), the Ki is ≤ 0.1 µM.

As for `C[C@@H](O)[C@H](NC(=O)C(CCc1ccccc1)NC(=O)OCc1ccccc1)C(=O)NC(CCc1ccc(N)nc1)C(=O)C(=O)NC(C)(C)C` (stereo partly shown), the Ki lay within 0.1 to 1 µM.

Regarding `C[C@@H](O)[C@H](NC(=O)[C@H](Cc1cccnc1)NC(=O)OCc1ccccc1)C(=O)NC(CCCNC(=N)N)C(=O)C(=O)NC(C)(C)C` (stereo partly shown), the Ki is ≤ 0.1 µM.

Turning to `CCNC(=O)C(=O)C(CCCNC(=N)N)NC(=O)[C@@H](NC(=O)[C@H](CCc1ccccc1)NC(=O)CCc1ccccc1)[C@@H](C)O` (stereo partly shown), the Ki was ≤ 0.1 µM.
